Reference: publication PMC5218480 (PLoS ONE, 2017)

System: MV-4-11 cells
Experiment: Gene expression microarray analysis (Affymetrix PrimeView) and GSEA
Format: cell-based, human
Design: RFU PODN (11730768_x_at) / Fold change /veh PODN (11730768_x_at) / RFU LINC00158 (11744669_a_at) / Fold change /veh LINC00158 (11744669_a_at) / RFU DUSP10 (11751237_a_at) / Fold change /veh DUSP10 (11751237_a_at) / RFU ID3 (11757404_x_at) / Fold change /veh ID3 (11757404_x_at) / RFU PLEKHG5 (11737974_s_at) / Fold change /veh PLEKHG5 (11737974_s_at) / RFU LRRC4B (11730491_at) / Fold change /veh LRRC4B (11730491_at) / RFU GIMAP4 (11747438_a_at) / Fold change /veh GIMAP4 (11747438_a_at) / RFU KRT8 (11758183_x_at) / Fold change /veh KRT8 (11758183_x_at) / RFU CNN1 (11734310_a_at) / Fold change /veh CNN1 (11734310_a_at) / RFU VPS37D (11726825_at) / Fold change /veh VPS37D (11726825_at) / RFU C10orf10 (11716522_x_at) / Fold change /veh C10orf10 (11716522_x_at) / RFU KIR2DL2 /// KIR2DL4 /// KIR2DL5A /// KIR2DL5B /// KIR2DS1 /// KIR2DS2 /// KIR2DS3 /// KIR2DS4 /// KIR3DL3 /// KIR3DL3 /// KIR3DS1 (11738374_at) / Fold change /veh KIR2DL2 /// KIR2DL4 /// KIR2DL5A /// KIR2DL5B /// KIR2DS1 /// KIR2DS2 /// KIR2DS3 /// KIR2DS4 /// KIR3DL3 /// KIR3DL3 /// KIR3DS1 (11738374_at) / RFU C1QL1 (11718748_at) / Fold change /veh C1QL1 (11718748_at) / RFU TMPRSS4 (11747572_a_at) / Fold change /veh TMPRSS4 (11747572_a_at) / RFU HAMP (11756126_x_at) / Fold change /veh HAMP (11756126_x_at) / RFU RNFT2 (11725882_a_at) / Fold change /veh RNFT2 (11725882_a_at) / RFU NR4A2 (11747474_a_at) / Fold change /veh NR4A2 (11747474_a_at) / RFU ABCC12 (11746883_a_at) / Fold change /veh ABCC12 (11746883_a_at) / RFU TMEM136 (11760407_x_at) / Fold change /veh TMEM136 (11760407_x_at) / RFU CLDN22 /// WWC2 (11732394_at) / Fold change /veh CLDN22 /// WWC2 (11732394_at) / RFU HLA-DPB1 (11760878_x_at) / Fold change /veh HLA-DPB1 (11760878_x_at) / RFU SPINT1 (11716480_a_at) / Fold change /veh SPINT1 (11716480_a_at) / RFU GAP43 (11754022_s_at) / Fold change /veh GAP43 (11754022_s_at) / RFU A4GNT (11735810_at) / Fold change /veh A4GNT (11735810_at) / RFU PRB3 (11715151_x_at) / Fold change /veh PRB3 (11715151_x_at) / RFU TUBB4B (11761932_at) / Fold change /veh TUBB4B (11761932_at) / RFU CAPN14 (11732068_a_at) / Fold change /veh CAPN14 (11732068_a_at) / RFU TMCC2 (11721928_a_at) / Fold change /veh TMCC2 (11721928_a_at) / RFU IRGQ (11745062_a_at) / Fold change /veh IRGQ (11745062_a_at) / RFU FAM174B (11720279_a_at) / Fold change /veh FAM174B (11720279_a_at) / RFU TMPRSS4 (11748680_a_at) / Fold change /veh TMPRSS4 (11748680_a_at) / RFU FAM212B (11763350_a_at) / Fold change /veh FAM212B (11763350_a_at) / RFU PLEKHG5 (11743358_a_at) / Fold change /veh PLEKHG5 (11743358_a_at) / RFU ZSCAN30 (11745921_a_at) / Fold change /veh ZSCAN30 (11745921_a_at) / RFU CMKLR1 (11741424_a_at) / Fold change /veh CMKLR1 (11741424_a_at) / RFU LOC101060620 /// MAPK8IP1 (11723275_at) / Fold change /veh LOC101060620 /// MAPK8IP1 (11723275_at) / RFU SPTSSB (11747773_x_at) / Fold change /veh SPTSSB (11747773_x_at) / RFU PRSS12 (11739890_at) / Fold change /veh PRSS12 (11739890_at) / RFU BIN1 (11741810_x_at) / Fold change /veh BIN1 (11741810_x_at) / RFU WNT11 (11732464_a_at) / Fold change /veh WNT11 (11732464_a_at) / RFU C10orf10 (11716521_a_at) / Fold change /veh C10orf10 (11716521_a_at) / RFU C5orf56 (11738089_at) / Fold change /veh C5orf56 (11738089_at) / RFU CYB561 (11721691_x_at) / Fold change /veh CYB561 (11721691_x_at) / RFU ANKRD19P (11752326_a_at) / Fold change /veh ANKRD19P (11752326_a_at) / RFU OR2T12 /// OR2T33 /// OR2T8 (11738714_s_at) / Fold change /veh OR2T12 /// OR2T33 /// OR2T8 (11738714_s_at) / RFU VCAN (11748164_a_at) / Fold change /veh VCAN (11748164_a_at) / RFU JSRP1 (11732532_at) / Fold change /veh JSRP1 (11732532_at) / RFU KRTAP10-11 (11738290_x_at) / Fold change /veh KRTAP10-11 (11738290_x_at) / RFU MYO3A (11730013_a_at) / Fold change /veh MYO3A (11730013_a_at) / RFU EBF3 (11725865_a_at) / Fold change /veh EBF3 (11725865_a_at) / RFU CAMK2N1 (11719241_x_at) / Fold change /veh CAMK2N1 (11719241_x_at) / RFU C5orf56 (11738088_a_at) / Fold change /veh C5orf56 (11738088_a_at) / RFU OLFML3 (11715873_a_at) / Fold change /veh OLFML3 (11715873_a_at) / RFU LOC100653217 /// NTM (11731650_a_at) / Fold change /veh LOC100653217 /// NTM (11731650_a_at) / RFU MAPK11 (11762145_a_at) / Fold change /veh MAPK11 (11762145_a_at) / RFU FIZ1 (11724087_x_at) / Fold change /veh FIZ1 (11724087_x_at) / RFU OASL (11726364_x_at) / Fold change /veh OASL (11726364_x_at) / RFU SOX15 (11748057_x_at) / Fold change /veh SOX15 (11748057_x_at) / RFU CD79A (11719716_a_at) / Fold change /veh CD79A (11719716_a_at) / RFU HIST1H1D (11736915_at) / Fold change /veh HIST1H1D (11736915_at) / RFU CASKIN2 (11723855_a_at) / Fold change /veh CASKIN2 (11723855_a_at) / RFU LOC730098 (11760151_x_at) / Fold change /veh LOC730098 (11760151_x_at) / RFU OR4N2 (11742367_at) / Fold change /veh OR4N2 (11742367_at) / RFU PRRT2 (11749266_a_at) / Fold change /veh PRRT2 (11749266_a_at) / RFU SNX32 (11753110_a_at) / Fold change /veh SNX32 (11753110_a_at) / RFU CDHR5 (11726645_a_at) / Fold change /veh CDHR5 (11726645_a_at) / RFU RCAN1 (11760418_a_at) / Fold change /veh RCAN1 (11760418_a_at) / RFU FAM167A (11723789_a_at) / Fold change /veh FAM167A (11723789_a_at) / RFU FAM26E (11764081_at) / Fold change /veh FAM26E (11764081_at) / RFU ISYNA1 (11749810_s_at) / Fold change /veh ISYNA1 (11749810_s_at) / RFU ACY1 (11761880_at) / Fold change /veh ACY1 (11761880_at) / RFU 11764098_at / Fold change /veh 11764098_at / RFU SAMD14 (11745864_x_at) / Fold change /veh SAMD14 (11745864_x_at) / RFU NPB (11741838_a_at) / Fold change /veh NPB (11741838_a_at) / RFU TMPRSS6 (11731388_a_at) / Fold change /veh TMPRSS6 (11731388_a_at) / RFU KRTAP10-2 (11738614_at) / Fold change /veh KRTAP10-2 (11738614_at) / RFU ARHGAP8 /// PRR5-ARHGAP8 (11727945_x_at) / Fold change /veh ARHGAP8 /// PRR5-ARHGAP8 (11727945_x_at) / RFU KRTAP5-7 /// NADSYN1 (11734609_at) / Fold change /veh KRTAP5-7 /// NADSYN1 (11734609_at) / RFU RASL12 (11751679_a_at) / Fold change /veh RASL12 (11751679_a_at) / RFU CDKN2B (11736163_a_at) / Fold change /veh CDKN2B (11736163_a_at) / RFU PRF1 (11729649_at) / Fold change /veh PRF1 (11729649_at) / RFU, ZNF638 /// ZNF638-IT1 / Fold change vs veh, ZNF638 /// ZNF638-IT1 / RFU, PANK3 / Fold change vs veh, PANK3 / RFU, SH3YL1 / Fold change vs veh, SH3YL1 / RFU, ZEB2 / Fold change vs veh, ZEB2 / RFU, NRIP1 / Fold change vs veh, NRIP1 / RFU, PTTG1IP / Fold change vs veh, PTTG1IP / RFU, CAPN2 / Fold change vs veh, CAPN2 / RFU, MED14 / Fold change vs veh, MED14 / RFU, SNORA58 / Fold change vs veh, SNORA58 / RFU, C1orf63 / Fold change vs veh, C1orf63 / RFU, LRRFIP1 / Fold change vs veh, LRRFIP1 / RFU, NDUFAF7 / Fold change vs veh, NDUFAF7 / RFU, SLC12A2 / Fold change vs veh, SLC12A2 / RFU, IBTK / Fold change vs veh, IBTK / RFU, ESF1 / Fold change vs veh, ESF1 / Fold change vs veh, TMEM50B / RFU, TAOK1 / Fold change vs veh, TAOK1 / RFU, ACBD3 / Fold change vs veh, ACBD3 / RFU, TMA16 / Fold change vs veh, TMA16 / RFU, RWDD3 / Fold change vs veh, RWDD3 / RFU, BCAT1 / Fold change vs veh, BCAT1 / RFU, EDEM3 / Fold change vs veh, EDEM3 / RFU, TMEM33 / Fold change vs veh, TMEM33 / RFU, WDR75 / Fold change vs veh, WDR75 / RFU, AHCTF1 / Fold change vs veh, AHCTF1 / RFU, TFRC / Fold change vs veh, TFRC / RFU, ZDHHC17 / Fold change vs veh, ZDHHC17 / RFU, NOM1 / Fold change vs veh, NOM1 / RFU, ARL8B / Fold change vs veh, ARL8B / RFU, ZBTB11 / Fold change vs veh, ZBTB11 / RFU, TAMM41 / Fold change vs veh, TAMM41 / RFU, KIAA1704 /// LOC100996395 / Fold change vs veh, KIAA1704 /// LOC100996395 / RFU, ING1 / Fold change vs veh, ING1 / RFU, TRMT61B / Fold change vs veh, TRMT61B / RFU, FUBP3 / Fold change vs veh, FUBP3 / RFU, TP53 / Fold change vs veh, TP53 / RFU, TNKS2 / Fold change vs veh, TNKS2 / RFU, ZFP14 / Fold change vs veh, ZFP14 / RFU, ACTR2 / Fold change vs veh, ACTR2 / RFU, PPP3R1 / Fold change vs veh, PPP3R1 / RFU, PIK3R1 / Fold change vs veh, PIK3R1 / RFU, HNRNPA1 / Fold change vs veh, HNRNPA1 / RFU, RNF170 / Fold change vs veh, RNF170 / RFU, ZNF28 / Fold change vs veh, ZNF28 / RFU, RNGTT / Fold change vs veh, RNGTT / RFU, OGT / Fold change vs veh, OGT / RFU, BRD1 / Fold change vs veh, BRD1 / RFU, MARS / Fold change vs veh, MARS / RFU, ZNF655 / Fold change vs veh, ZNF655 / RFU, FAHD1 / Fold change vs veh, FAHD1 / RFU, BDP1 / Fold change vs veh, BDP1 / RFU, LRRCC1 / Fold change vs veh, LRRCC1 / RFU, ARID1A / Fold change vs veh, ARID1A / RFU, ZNF146 / Fold change vs veh, ZNF146 / RFU, ZNF330 / Fold change vs veh, ZNF330 / RFU, GPN3 / Fold change vs veh, GPN3 / RFU, C9orf123 / Fold change vs veh, C9orf123 / RFU, N4BP2L2 / Fold change vs veh, N4BP2L2 / RFU, ARFIP1 / Fold change vs veh, ARFIP1 / RFU, FAM179B / Fold change vs veh, FAM179B / RFU, BCL10 / Fold change vs veh, BCL10 / RFU, UHRF1BP1L / Fold change vs veh, UHRF1BP1L / RFU, BET1 / Fold change vs veh, BET1 / RFU, CNOT2 / Fold change vs veh, CNOT2 / RFU, ZNF268 / Fold change vs veh, ZNF268 / Fold change vs veh, ZNF507 / RFU, DGCR2 / Fold change vs veh, DGCR2 / RFU, WDSUB1 / Fold change vs veh, WDSUB1 / Fold change vs veh, HSP90B1 /// MIR3652 / RFU, ADSS / Fold change vs veh, ADSS / RFU, GK / Fold change vs veh, GK / RFU, ZNF148 / Fold change vs veh, ZNF148 / RFU, TAF9 / Fold change vs veh, TAF9 / RFU, SLC1A5 / Fold change vs veh, SLC1A5 / RFU, SLMO2 / Fold change vs veh, SLMO2 / RFU, ABCC4 / Fold change vs veh, ABCC4 / RFU, LOC101060439 /// RAP1B / Fold change vs veh, LOC101060439 /// RAP1B / RFU, RFX7 / Fold change vs veh, RFX7 / RFU, GTPBP10 / Fold change vs veh, GTPBP10 / RFU, CNEP1R1 / Fold change vs veh, CNEP1R1 / RFU, BIVM-ERCC5 /// ERCC5 / Fold change vs veh, BIVM-ERCC5 /// ERCC5 / RFU, ILF3 / Fold change vs veh, ILF3 / RFU 11762660_at / Fold change /veh 11762660_at / RFU VCAN (11757783_s_at) / Fold change /veh VCAN (11757783_s_at) / RFU DDX43 (11728927_at) / Fold change /veh DDX43 (11728927_at) / RFU KRT8 (11758188_x_at) / Fold change /veh KRT8 (11758188_x_at) / RFU NKD1 (11759106_at) / Fold change /veh NKD1 (11759106_at) / RFU SRD5A1 (11742802_a_at) / Fold change /veh SRD5A1 (11742802_a_at) / RFU TPSAB1 /// TPSB2 (11721975_s_at) / Fold change /veh TPSAB1 /// TPSB2 (11721975_s_at) / RFU GSTM3 (11746129_a_at) / Fold change /veh GSTM3 (11746129_a_at) / RFU IL23R (11737362_x_at) / Fold change /veh IL23R (11737362_x_at) / RFU TMEM51 (11727254_a_at) / Fold change /veh TMEM51 (11727254_a_at) / RFU PIWIL2 (11732686_x_at) / Fold change /veh PIWIL2 (11732686_x_at) / RFU ORM1 (11744905_x_at) / Fold change /veh ORM1 (11744905_x_at) / RFU CCDC152 (11743942_at) / Fold change /veh CCDC152 (11743942_at) / RFU ECM1 (11717891_a_at) / Fold change /veh ECM1 (11717891_a_at) / RFU IL23R (11748794_a_at) / Fold change /veh IL23R (11748794_a_at) / RFU TNFAIP8L3 (11732012_x_at) / Fold change /veh TNFAIP8L3 (11732012_x_at) / RFU MBOAT4 (11741988_at) / Fold change /veh MBOAT4 (11741988_at) / RFU 11764193_at / Fold change /veh 11764193_at / RFU TMEM53 (11763286_at) / Fold change /veh TMEM53 (11763286_at) / RFU MAGEB2 (11727129_at) / Fold change /veh MAGEB2 (11727129_at) / RFU TMEM200A (11744735_a_at) / Fold change /veh TMEM200A (11744735_a_at) / RFU CCDC152 (11751479_a_at) / Fold change /veh CCDC152 (11751479_a_at) / RFU FAM211A (11726209_a_at) / Fold change /veh FAM211A (11726209_a_at) / RFU RGS16 (11746705_a_at) / Fold change /veh RGS16 (11746705_a_at) / RFU VCAN (11755009_s_at) / Fold change /veh VCAN (11755009_s_at) / RFU RHOB (11743442_s_at) / Fold change /veh RHOB (11743442_s_at) / RFU RGS16 (11720943_a_at) / Fold change /veh RGS16 (11720943_a_at) / RFU RGS16 (11720944_at) / Fold change /veh RGS16 (11720944_at) / RFU, VPS4B / Fold change vs veh, VPS4B / RFU, CREB1 / Fold change vs veh, CREB1 / RFU, DNAJC13 / Fold change vs veh, DNAJC13 / RFU, GNAQ / Fold change vs veh, GNAQ / RFU, CDK5R1 / Fold change vs veh, CDK5R1 / RFU, ZRANB3 / Fold change vs veh, ZRANB3 / RFU, CUL4A / Fold change vs veh, CUL4A / RFU, CCNY / Fold change vs veh, CCNY / RFU, UFL1 / Fold change vs veh, UFL1 / RFU, COG3 / Fold change vs veh, COG3 / RFU, DIAPH2 / Fold change vs veh, DIAPH2 / RFU, SKA2 / Fold change vs veh, SKA2 / RFU, AFF3 / Fold change vs veh, AFF3 / RFU, LMF1 / Fold change vs veh, LMF1 / RFU, IPO11 / Fold change vs veh, IPO11 / RFU, DFFB / Fold change vs veh, DFFB / RFU, FOXP1 / Fold change vs veh, FOXP1 / RFU, CARD8 / Fold change vs veh, CARD8 / RFU, STRN3 / Fold change vs veh, STRN3 / RFU, ADK / Fold change vs veh, ADK / RFU, RASSF2 / Fold change vs veh, RASSF2 / RFU, WIPF1 / Fold change vs veh, WIPF1 / RFU, LARP1B / Fold change vs veh, LARP1B / RFU, RASA1 / Fold change vs veh, RASA1 / RFU, RB1 / Fold change vs veh, RB1 / RFU, PPFIA1 / Fold change vs veh, PPFIA1 / RFU, MAT2A / Fold change vs veh, MAT2A / RFU, CCT5 / Fold change vs veh, CCT5 / RFU, WDR92 / Fold change vs veh, WDR92 / RFU, CUX1 / Fold change vs veh, CUX1 / RFU, TTC7A / Fold change vs veh, TTC7A / RFU, TMEM135 / Fold change vs veh, TMEM135 / RFU, DEPTOR / Fold change vs veh, DEPTOR / RFU, CPM / Fold change vs veh, CPM / RFU, DNAJB6 / Fold change vs veh, DNAJB6 / RFU, CACNA2D3 / Fold change vs veh, CACNA2D3 / RFU, DTX4 / Fold change vs veh, DTX4 / RFU, TFCP2 / Fold change vs veh, TFCP2 / RFU, GMCL1 /// GMCL1P1 / Fold change vs veh, GMCL1 /// GMCL1P1 / RFU, AEBP2 / Fold change vs veh, AEBP2 / RFU, SNHG1 /// SNORD22 /// SNORD25 /// SNORD26 /// SNORD27 /// SNORD28 /// SNORD29 /// SNORD31 / Fold change vs veh, SNHG1 /// SNORD22 /// SNORD25 /// SNORD26 /// SNORD27 /// SNORD28 /// SNORD29 /// SNORD31 / Fold change (Aza/veh), C12orf56 (ProbeSet 11735607_a_at) / Fold change (ACY-1035/veh), C12orf56 (ProbeSet 11735607_a_at) / Fold change (Aza/veh), FGFR1OP (ProbeSet 11751329_s_at) / Fold change (ACY-1035/veh), FGFR1OP (ProbeSet 11751329_s_at) / Fold change (Aza/veh), VPS36 (ProbeSet 11739960_a_at) / Fold change (ACY-1035/veh), VPS36 (ProbeSet 11739960_a_at) / RFU SYPL1 (11715823_x_at) / Fold change /veh SYPL1 (11715823_x_at) / RFU IGFBP7 (11715501_s_at) / Fold change /veh IGFBP7 (11715501_s_at) / RFU REEP3 (11722064_at) / Fold change /veh REEP3 (11722064_at) / RFU IGLL1 (11728026_x_at) / Fold change /veh IGLL1 (11728026_x_at): dose or concentration left out as unconfirmed
Settings: ProbeSet 11715478_a_at; LIST B

Nc1ncn([C@@H]2O[C@H](CO)[C@@H](O)[C@H]2O)c(=O)n1 [azacitidine]
RFU, TFRC: 131.21 RFU
